Results on one compound are retold here after publication PMC8779255, “Determining the Anticancer Activity of Sphingosine Kinase Inhibitors Containing Heteroatoms in Their Tail Structure” (Pharmaceutics, 2022).

Like-named read-outs stand apart in the source and are kept apart here.

As usually defined, the inhibition is the share of the control response that was lost under treatment. Lower therefore signals a weak effect. As a reminder, the IC50 is the concentration that gives 50% inhibition.

For one data set, the target named is T1, CYP1A2 (Homo sapiens, UniProt P05177).
T1 sequence (P05177 1-516): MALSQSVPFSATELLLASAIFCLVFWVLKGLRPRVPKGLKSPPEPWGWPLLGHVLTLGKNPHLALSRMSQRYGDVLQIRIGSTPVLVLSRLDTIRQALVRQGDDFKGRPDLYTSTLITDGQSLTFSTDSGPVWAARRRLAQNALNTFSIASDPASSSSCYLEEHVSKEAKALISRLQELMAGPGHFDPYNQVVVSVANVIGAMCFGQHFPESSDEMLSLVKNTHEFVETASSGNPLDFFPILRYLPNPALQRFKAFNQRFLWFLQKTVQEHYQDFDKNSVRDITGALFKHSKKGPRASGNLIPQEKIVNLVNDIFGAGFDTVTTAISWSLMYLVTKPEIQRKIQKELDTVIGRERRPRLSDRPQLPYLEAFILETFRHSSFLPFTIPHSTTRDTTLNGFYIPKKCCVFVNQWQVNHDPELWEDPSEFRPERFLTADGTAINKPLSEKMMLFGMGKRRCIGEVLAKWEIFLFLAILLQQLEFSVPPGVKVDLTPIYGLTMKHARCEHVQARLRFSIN
In words: Inhibition of CYP enzymes activity, human liver microsomes. Particulars: human liver microsomes 0.25 mg/mL, 10 μM, phenacetin substrate.

For another data set, the system named is ceramide in HCT116 cells. In words: Ceramide ELISA of cell lysate. It counts as cell-based, human. Particulars: HCT116, 20 µM, 24 h. The protocol: The cellular levels of S1P, sphingosine, and ceramide were detected using an ELISA assay kit (MyBioSource, Inc., San Diego, CA, USA) according to the manufacturer’s instruction. For S1P ELISA, 100 µL cell lysates or standards were added in pre-coated ELISA wells, incubated for 90 min at 37 °C, and treated with 1x biotinylated anti S1P antibody for 1 h. Following treatment of HRP conjugated secondary antibody, the substrate was added and allowed to change the color for 15 min; then, the stop solution was added and absorbance was measured at 450 nm using a Multiskan GO (Thermo Scientific, Waltham, MA, USA) microplate spectrophotometer. […] A stop solution (50 µL) was added to each well, and optical density was measured at 450 nm using a microplate reader. […] After incubation, 50 µL substrate A and B was added to the plate and incubated at 37 °C for 20 min; a stop solution (50 µL) was added to each well and optical density was determined at 450 nm using a microplate reader. The concentration of S1P, sphingosine, and ceramide were calculated as ng/mL using respective standard curves constructed by Skanlt microplate reader software 5.0 (Thermo Scientific, Waltham, MA, USA).

In another data set the target is T2, SK1 enzyme (Homo sapiens, UniProt Q9NYA1).
T2 construct: purchased Thermo Fisher Scientific
T2 sequence (Q9NYA1 whole entry): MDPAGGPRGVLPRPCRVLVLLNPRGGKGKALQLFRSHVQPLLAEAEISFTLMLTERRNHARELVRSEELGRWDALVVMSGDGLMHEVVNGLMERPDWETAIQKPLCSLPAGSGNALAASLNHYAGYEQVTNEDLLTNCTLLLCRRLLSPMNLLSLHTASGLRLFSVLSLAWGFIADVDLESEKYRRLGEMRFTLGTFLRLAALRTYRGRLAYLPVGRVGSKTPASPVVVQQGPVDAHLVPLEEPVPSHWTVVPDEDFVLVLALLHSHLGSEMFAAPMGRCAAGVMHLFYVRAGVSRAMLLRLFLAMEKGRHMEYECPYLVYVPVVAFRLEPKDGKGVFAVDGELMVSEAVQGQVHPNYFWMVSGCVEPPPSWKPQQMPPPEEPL
Nature of the data set: SK activity assay (Adapta screening system). It counts as biochemical. The note with it: final concentration of 20 μM. The method, then: The effect of compounds in sphingosine kinase activity was examined using the […] screening system (Thermo Fisher Scientific System, Waltham, MA, USA). The kinase inhibition ability of compounds 1-11 along with RB005 was measured with final concentration of 20 μM. […] The data were presented as percentage inhibition of SK enzyme by individual compounds.

In data set [1] the test system is HCT116 cells. In words: Mitochondrial outer membrane potential (MOMP) by JC-10 staining. It counts as cell-based, human. Particulars: HCT116, 10 and 20 µM, 24 h, vs nontreated control. The method, then:
(§1) To access the mechanism of cell death, mitochondrial outer membrane potential (MOMP) was measured using JC-10 cationic dye. HT29 and HCT116 cells (2.5 × 10^5 cells/well) were seeded in 12-well plates and treated with a test compound for 24 h, collected in 1.5 mL microtubes using trypsin-EDTA, washed with 1× cold PBS, and stained with JC-10 dye prepared in HBSS solution (0.14 M NaCl, 0.005 M KCl, 0.001 M CaCl2, 0.005 M MgSO4. 7H2O, 0.0004 M […], 0.0003 M Na2HPO4-2H2O, 0.0004 M KH2PO4, 0.006 M D-glucose, 0.004 M NaHCO3, 0.002 M HEPES, and 0.02% Pluronic® F-127) for 30 min. Samples were analyzed using MACSQuanta Analyzer 10. Cells with green and red fluorescence were plotted in a dot plot; the ratio of red to green fluorescence was calculated using MACSQuantify^TM version 2.8 software and presented as MOMP of the cells. The experiment was repeated three times (n = 6).

Data set [2] concerns HT29 cells. The data set is described as above. It counts as cell-based, human. Particulars: HT29, 10 and 20 µM, 24 h, vs nontreated control. The method, then:
as §1

For data set [3], the system named is HCT116 cells. Nature of the data set: MTT cell viability assay. It is filed as cell-based, human. The note with it: for IC50: Homo sapiens, HCT-116, read-out: relative IC50 (cell viability). The protocol: (§2) The HT29 and HCT116 cells (human colon cancer), AGS (human gastric cancer), and MIA PaCa-2 cells (human pancreatic cancer) were purchased from Korean Cell Line Bank (Seoul, Korea). Cancer cells were maintained in RPMI (HT29 and AGS) and DMEM (HCT116 and MIA PaCa-2) culture media supplemented with 10% fetal bovine serum (FBS) and 100 U/mL penicillin and streptomycin at 37 °C in a 95% humidified incubator containing 5% CO2. The cytotoxic effect of the compounds was assessed using the MTT cell viability assay. Briefly, 3 × 10^3 cells/well were grown in 96-well plates for 24 h. After treatment with desired concentration of respective compounds for 24 h or 48 h, the EZ-CYTOTOX (10 µM) reagent was added in each well and incubated for 90 min. The absorbance was measured at 450 nm wavelength using Skanlt software 5.0 (Thermo Scientific, Waltham, MA, USA) installed on a Multiskan GO (Thermo Scientific, Waltham, MA, USA) spectrophotometer. Each experiment was independently repeated three times (n = 12).

Data set [4] deals with HT29 cells. In words: MTT cell viability assay. It counts as cell-based, human. Particulars: for IC50: Homo sapiens, HT-29, read-out: relative IC50 (cell viability). The method, then: as §2
On the technique in general: Tetrazolium assays rely on reduction of a dye to a coloured formazan, in cell work by metabolically active cells.

Description for CYP1A2: Afterward, to terminate the reaction, an acetonitrile solution containing an internal standard (terfenadine) was added, centrifuged for 5 min (14,000 rpm, 4 °C), and the supernatant was injected into the LC-MS/MS system. By simultaneously analyzing metabolites, the ability of the six compounds to inhibit drug metabolism enzymes was evaluated.
Metabolites of each CYP coenzyme indicator drug generated through the above reaction were analyzed using the Shimadzu Nexera XR system and TSQ vantage (Thermo). The HPLC column was a Kinetex C18 column (2.1 × 100 mm^2, 2.6 μm particle size; Phenomenex, Torrance, CA, USA), and the mobile phase was distilled water (A) containing 0.1% formic acid and acetonitrile (B) containing 0.1% formic acid. […] The generated metabolites were quantified using MRM (Multiple Reaction Monitoring) quantification modes, and data were analyzed using Xcalibur (version 1.6.1).

For `CCCCCCCOc1ccc(CCN2CCN(CCO)CC2)cc1` [Compound 10, 2-(4-(4-(Heptyloxy)phenethyl)piperazin-1-yl)ethanol], the “CYP1A2 activity (% of control activity)” value at CYP1A2 is more than 100%. Further, the ceramide level result with ceramide in HCT116 cells was “increased”. In addition, the inhibition at 20 µM at SK1 enzyme amounted to 20%. Besides, the “JC-10 dye red to green fluorescence ratio (MOMP)” value with HCT116 cells [1] and in the data set with HT29 cells [2] was “significantly reduced” in each case. For the same compound, the “cytotoxic effect, comparison” value in the data set with HCT116 cells [3] (HCT116, 10, 20 and 40 µM, Supplementary Figure S1C) is “higher than compounds 11, 13, and PF-543”. Moreover, the “cytotoxic effect (cell viability)” value was “significant cytotoxic effects in both 20 and 40 µM concentrations” with HCT116 cells [3] (HCT116, 20 and 40 µM, 24 h, Figure 2B); “more cytotoxic than RB005 and 5-FU” with HT29 cells [4] (HT29, 20 and 40 µM, 24 h, Figure 2A). Moreover, the 50% inhibitory concentration (IC50) in the data set on HCT116 cells [3] (HCT116, 24 h treatment) turned out to be 10.9 µM; with HCT116 cells [3] (HCT116, 48 h treatment, 2.5–40 µM), 8.69 µM; in the data set on HT29 cells [4] (HT29, 24 h treatment), 10.5 µM; in the data set on HT29 cells [4] (HT29, 48 h treatment, 2.5–40 µM), 6.22 µM.
